What is called chromatographic logP is a lipophilicity value derived from retention on a column. A word on the logP: it is the decadic logarithm of the partition coefficient of the neutral form, usually between octanol and water.

This passage reports chromatographic logP and logP results from patent EP1972623A1, “Arylpyridazines as fungicides” (Bayer CropScience AG, priority 2007, dated 2008).

One data set is described as follows: logP determination via HPLC retention times (calibration with unbranched alkan-2-ones). It is filed as physicochemical. Conditions: HPLC on reversed-phase C 18 columns per EEC Directive 79/831 Annex V.A8; acidic mobile phase (0.1% aqueous formic or phosphoric acid) and acetonitrile, linear gradient 10% to 95% acetonitrile. An excerpt:
Die Kalibrierung wurde jeweils mit unverzweigten Alkan-2-onn (3 bis 16 Kohlenstoff Atome) mit bekannten IogP Werten durchgeführt (Bestimmung von den logP Werten über die Retentionszeiten durch lineare Interpolation zwischen zwei bestimmten Alkazionen). Die Lambda-max Werte wurden jeweils in den Maxima der Chromatographie-Signale durch UV Spektren zwischen 190nm und 400nm bestimmt.
Regarding `Cc1ccccc1-c1c(Cl)nnc(C)c1-c1cccs1` [Beispiel 190], the chromatographic logP stood at 3.18.

Still in this data set, the particulars now being: HPLC on reversed-phase C 18 columns, EEC Directive 79/831 Annex V.A8; acidic aqueous mobile phase / acetonitrile, linear gradient 10% to 95% acetonitrile.
Turning to `Cc1nnc(Cl)c(-c2ccccc2Cl)c1-c1ccc(Cl)s1` [Beispiel 58], the logP is listed as 4,01.
With `Cc1nnc(Cl)c(-c2cccc3c2OC(F)(F)O3)c1-c1ccc(Cl)s1` [compound 1], the chromatographic logP is 4.33.
On to `Cc1nnc(Cl)c(-c2ccc(F)cc2Br)c1-c1ccc(Cl)s1` [compound 10], for which the chromatographic logP came to 4.28.

Still in this data set, the particulars now being: from retention times, linear interpolation between alkan-2-ones.
For “3-(2-Methyl)-4-(2-thienyl)-5-hydroxy-5-methylfuran-2(5H)-on”, the logP was determined as 2.59.
As to `CC1(O)OC(=O)C(c2cc(F)c(F)cc2F)=C1c1cccs1` (stereo not drawn) [3-(2,4,5-Trifluorphonyl)-4-(2-thienyl)-5-hydroxy-5-methylfuran-2(5H)-on], the chromatographic logP was 2.57.
With `Cc1ccc(C2=C(c3cc(F)c(F)cc3F)C(=O)OC2(C)O)nc1C` (stereo not drawn) [3-(2,4,5-Trilluorphenyl)4-(5,6-Dimethyl-2-pyridyl)-5-hydroxy-5-methylfuran-2(5H)-on], the chromatographic logP was determined as 2.89.
In turn, `CC1(O)OC(=O)C(c2c(Cl)cccc2Cl)=C1c1cccs1` (stereo not drawn) [3-(2,6-Dichlorphenyl)-4-(2-thienyl)-5-hydroxy-5-methylfuran-2(5H)-on] gave a chromatographic logP of 2.57.
Same read-out and setting: the result for `Cc1ccc(C2=C(c3c(Cl)cccc3Cl)C(=O)OC2(C)O)nc1C` (stereo not drawn) [3-(2,6-Dichlorphenyl)-4-(5,6-Dimethyl-2-pyridyl)5-hydroxy-5-methylfuran-2(5H)-on] reads 3.14.
In the case of `CC1(O)OC(=O)C(c2c(F)cccc2F)=C1c1cccs1` (stereo not drawn) [3-(2,6-Difluorphenyl)4-(2-thienyl)-5-hydroxy-5-methylfuran-2(5H)-on], the chromatographic logP was 2.39.
Compound `CC1(O)OC(=O)C(c2c(F)cccc2F)=C1c1ccncc1` (stereo not drawn) [3-(2,6-Difluorphenyl)-4-(4-pyridyl)-5-hydroxy-5-methylfuran-2(5H)-on] had a chromatographic logP of 1.4.
Compound `Cc1ccc(C2=C(c3c(F)cccc3F)C(=O)OC2(C)O)nc1C` (stereo not drawn) [3-(2,6-Difluorphenyl)-4-(5,6-Dimethyl-2-pyridyl)-5-hydroxy-5-methylfuran-2(5H)-on] registered a chromatographic logP of 2.65.
Still for that read-out and setting: the result for `CC1(O)OC(=O)C(c2c(F)cccc2F)=C1c1nccs1` (stereo not drawn) [3-(2,6-Difluorphonyl)-4-(2-thiazolyl)-5-hydroxy-5-methylfuran-2(5H)-on] reads 1.92.
For the compound `CC1(O)OC(=O)C(c2ccc(F)cc2Br)=C1c1cccs1` (stereo not drawn) [3-(2-Brom-4-fluorphenyl)-4-(2-thienyl)-5-hydroxy-5-methylfuran-2(5H)-on], the chromatographic logP worked out at 2.64.
`CC1(O)OC(=O)C(c2ccc(F)cc2Br)=C1c1ccc(Cl)s1` (stereo not drawn) [3-(2-Brom-4-fluorphenyl)-4-(5-chlor-2-thienyl)-5-hydroxy-5-methylfuran-2(5H)-on] came in with a chromatographic logP of 3.3.
The same measure, in the same setting: the result for `CC1(O)OC(=O)C(c2ccc(F)cc2Cl)=C1c1cccs1` (stereo not drawn) [3-(2-Chlor-4-fluorphenyl)-4-(2-thienyl)-5-hydroxy-5-methylfuran-2(5H)-on] reads 2.68; that for `CC1(O)OC(=O)C(c2ccc(F)cc2Cl)=C1c1ccc(Cl)s1` (stereo not drawn) [3-(2-Chlor-4-fluorphenyl)-4-(5-chlor-2-thienyl)-5-hydroxy-5-methylfuran-2(5H)-on], 3.24; that for `CC1(O)OC(=O)C(c2c(F)cccc2Cl)=C1c1cccs1` (stereo not drawn) [3-(2-Chlor-6-fluorphenyl)-4-(2-thienyl)-5-hydroxy-5-methylfuran-2(5H)-on], 2.61.
`CC1(O)OC(=O)C(c2c(F)cccc2Cl)=C1c1ccc(Cl)s1` (stereo not drawn) [3-(2-Chlor-6-fluorphenyl)-4-(5-chlor-2-thienyl)-5-hydroxy-5-methylfuran-2(5H)-on] gave a chromatographic logP of 3.13.
On the same count and under the same terms, the result for `CC1(O)OC(=O)C(c2ccccc2Cl)=C1c1cccs1` (stereo not drawn) [3-(2-Chlorphenyl)-4-(2-thienyl)-5-hydroxy-5-methylfuran-2(5H)-on] reads 2.44; that for `CC1(O)OC(=O)C(c2ccccc2Cl)=C1c1ccc(Cl)s1` (stereo not drawn) [3-(2-Chlorphenyl)-4-(5-chlor-2-thienyl)-5-hydroxy-5-methylfuran-2(5H)-on], 3.91.
In the case of `CC1(O)OC(=O)C(c2ccccc2F)=C1c1cccs1` (stereo not drawn) [3-(2-Fluorphenyl)-4-(2-thienyl)-5-hydroxy-5-methylfuran-2(5H)-on], the chromatographic logP was determined as 2.29.
On the same count and under the same terms, the result for `CC1(O)OC(=O)C(c2cccc(Cl)c2)=C1c1cccs1` (stereo not drawn) [3-(3-Chlorphenyl)-4-(2-thienyl)-5-hydroxy-5-methylfuran-2(5H)-on] reads 2.73; that for `CC1(O)OC(=O)C(c2cccc(Cl)c2)=C1c1ccc(Cl)s1` (stereo not drawn) [3-(3-Chlorphenyl)-4-(5-chlor-2-thienyl)-5-hydroxy-5-metylfuran-2(5H)-on], 3.38.
Still for that read-out and setting: the result for `Cc1n[nH]c(=O)c(-c2c(Cl)cccc2Cl)c1-c1cccs1` [4-(2,6-Dichlorphenyl)-5-(2-thienyl)-6-methylpyridazin-3(2H)-on] reads 2.43.
`Cc1ccc(C2=C(c3c(F)cccc3F)C(C)(O)OC2=O)o1` (stereo not drawn) [4-(2,6-Difluorphenyl)-3-(5-Methyl-2-furyl)-5-hydroxy-5-methylfuran-2(5H)-on] yielded a logP of 2.35.
Compound `Cc1n[nH]c(=O)c(-c2ccc(F)cc2Br)c1-c1ccc(Cl)s1` [4-(2-Brom-4-fluorphenyl)-5-(5-chlor-2-thienyl)-6-methylpyridazin-3(2H)-on] returned a chromatographic logP of 3.03.
The same measure, in the same setting: the result for `Cc1n[nH]c(=O)c(-c2ccc(F)cc2Cl)c1-c1ccc(Cl)s1` [4-(2-Chlor-4-fluorphenyl)-5-(5-chlor-2-thienyl)-6-methylpyridazin-3(2H)-on] reads 2.97; that for `Cc1n[nH]c(=O)c(-c2ccccc2Cl)c1-c1cccs1` [4-(2-Chlorphenyl)-5-(2-thienyl)-6-methylpyridazin-3(2H)-on], 2.19; that for `Cc1n[nH]c(=O)c(-c2ccccc2Cl)c1-c1ccc(Cl)s1` [4-(2-Chlorphenyl)-5-(5-chlor-2-thienyl)-6-methylpyridazin-3(2H)-on], 2.83.
The same measure, in the same setting: the result for `Cc1n[nH]c(=O)c(-c2ccccc2F)c1-c1cccs1` [4-(2-Fluorphonyl)-5-(2-thienyl)-6-methylpyridazin-3(2H)-on] reads 2.06; that for `Cc1n[nH]c(=O)c(-c2cccc(Cl)c2)c1-c1ccc(Cl)s1` [4-(3-Chlorphenyl)-5-(5-chlor-2-thienyl)-6-methylpyridazin-3(2H)-on], 3.04.
Same read-out and setting: the result for `CC1(O)OC(=O)C(c2cccc3c2OC(F)(F)O3)=C1c1ccc(Cl)s1` (stereo not drawn) [4-(5-Chlor-2-thienyl)-3-(2,2-difluor-1,3-benzodioxol-4-yl)-5-hydroxy-5-methylfuran-2(5H)-on] reads 3.41.
With `CC1(O)OC(=O)C(c2c(Cl)cccc2Cl)=C1c1ccc(Cl)s1` (stereo not drawn) [4-(5-Chlor-2-thienyl)-3-(2,6-dichlorphenyl)-5-hydroxy-5-methylfuran-2(5H)-on], the chromatographic logP was found to be 3.26.
The compound `CC1(O)OC(=O)C(c2c(F)cccc2F)=C1c1ccc(Cl)s1` (stereo not drawn) [4-(5-Chlor-2-thienyl)-3-(2,6-difluorphonyl)-5-hydroxy-5-methylfuran-2(5H)-on] registered a chromatographic logP of 2.94.
`CC1(O)OC(=O)C(c2ccccc2F)=C1c1ccc(Cl)s1` (stereo not drawn) [4-(5-Chlor-2-thienyl)-3-(2-fluorphenyl)-5-hydroxy-5-methylfuran-2(5H)-on] gave a chromatographic logP of 2.93.
On the same count and under the same terms, the result for `CC1(O)OC(=O)C(c2cc(F)c(F)cc2F)=C1c1ccc(Cl)s1` (stereo not drawn) [4.(5-Chlor-2-thienyl)-3-(2,4,5-trifluorphenyl)-5-hydroxy-5-methylfuran-2(5H)-on] reads 3.17; that for `Cc1n[nH]c(=O)c(-c2c(F)cccc2F)c1-c1nccs1` [5-(2-Thiazolyl)-4-(2,6-difluorphenyl)-6-methylpyridazin-3(2H)-on], 1.57.
`Cc1n[nH]c(=O)c(-c2cc(F)c(F)cc2F)c1-c1cccs1` [5-(2-thienyl)-4-(2,4,5-trifluorphenyl)-6-methylpyridazin-3(2H)-on]: the chromatographic logP was found to be 2.32.
Still for that read-out and setting: the result for `Cc1n[nH]c(=O)c(-c2c(F)cccc2F)c1-c1ccncc1` [5-(4-Pyridyl)4-(2,6-difluorphenyl)-6-methylpyridazin-3(2H)-on] reads 0.93; that for `Cc1ccc(-c2c(C)n[nH]c(=O)c2-c2cc(F)c(F)cc2F)nc1C` [5-(5,6-Dimethyl-2-pyridyl)-4-(2,4,5-trifluorphenyl)-6-methylpyridazin-3(2H)-on], 2.06; that for `Cc1ccc(-c2c(C)n[nH]c(=O)c2-c2c(Cl)cccc2Cl)nc1C` [5-(5,6-Dimethyl-2-pyridyl)-4-(2,6-dichlorphenyl)-6-methylpyridazin-3(2H)-on], 2.11.
`Cc1n[nH]c(=O)c(-c2cccc3c2OC(F)(F)O3)c1-c1ccc(Cl)s1` [5-(5-Chlor-2-thienyl)-4-(2,2-difluor-1,3-benzodioxol-4-yl)-6-methylpyridazin-3(2H)-on]: the chromatographic logP turned out to be 3.18.
The same measure, in the same setting: the result for `Cc1n[nH]c(=O)c(-c2cc(F)c(F)cc2F)c1-c1ccc(Cl)s1` [5-(5-Chlor-2-thienyl)-4-(2,4,5-trifluorphanyl)-6-methylpyridazin-3(2H)-on] reads 2.88; that for `Cc1n[nH]c(=O)c(-c2c(Cl)cccc2Cl)c1-c1ccc(Cl)s1` [5-(5-Chlor-2-thienyl)-4-(2,6-dichlorphenyl)-6-methylpyridazin-3(2H)-on], 3.11; that for `Cc1n[nH]c(=O)c(-c2ccccc2F)c1-c1ccc(Cl)s1` [5-(5-Chlor-2-thienyl)-4-(2-fluorphenyl)-6-methylpyridazin-3(2H)-on], 2.64.
Still for that read-out and setting: the result for `Cc1ccc(-c2c(C)n[nH]c(=O)c2-c2c(F)cccc2F)o1` [5-(5-Methyl-2-furyl)-4-(2,6-difluorphenyl)-6-methylpyridazin-3(2H)-on] reads 2.19; that for `Cc1nnc(Cl)c(-c2ccccc2Cl)c1-c1ccc(Cl)s1` [Beispiel 58], 4.01.
